Measurements: patent publication US10793564B2, “Amino acid compounds and methods of use” (Pliant Therapeutics, Inc., priority 2018, dated 2020)

Biological target: recombinant human integrin αVβ6 (Homo sapiens (Human), UniProt P06756+P18564)
Experiment: Solid phase integrin αVβ6 binding assay
Settings: inhibition of recombinant TGFβ1 LAP binding to coated integrin, IC50 presented in four ranges, read-out: αvβ6 Inhibition IC50 (nM) - range
Procedure, shortened: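 Plates coated with recombinant human αVβ6 (2 μg/mL) and blocked; compounds competed with TGFβ1 LAP (0.67 μg/mL) in Mn2+ (0.5 mM)/BSA/sucrose TBS for 2 h at 25° C. Bound LAP detected by biotin anti-LAP and peroxidase-streptavidin; IC50 by four-parameter logistic fit.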

Chain of recombinant human integrin αVβ6 (P06756 31-992): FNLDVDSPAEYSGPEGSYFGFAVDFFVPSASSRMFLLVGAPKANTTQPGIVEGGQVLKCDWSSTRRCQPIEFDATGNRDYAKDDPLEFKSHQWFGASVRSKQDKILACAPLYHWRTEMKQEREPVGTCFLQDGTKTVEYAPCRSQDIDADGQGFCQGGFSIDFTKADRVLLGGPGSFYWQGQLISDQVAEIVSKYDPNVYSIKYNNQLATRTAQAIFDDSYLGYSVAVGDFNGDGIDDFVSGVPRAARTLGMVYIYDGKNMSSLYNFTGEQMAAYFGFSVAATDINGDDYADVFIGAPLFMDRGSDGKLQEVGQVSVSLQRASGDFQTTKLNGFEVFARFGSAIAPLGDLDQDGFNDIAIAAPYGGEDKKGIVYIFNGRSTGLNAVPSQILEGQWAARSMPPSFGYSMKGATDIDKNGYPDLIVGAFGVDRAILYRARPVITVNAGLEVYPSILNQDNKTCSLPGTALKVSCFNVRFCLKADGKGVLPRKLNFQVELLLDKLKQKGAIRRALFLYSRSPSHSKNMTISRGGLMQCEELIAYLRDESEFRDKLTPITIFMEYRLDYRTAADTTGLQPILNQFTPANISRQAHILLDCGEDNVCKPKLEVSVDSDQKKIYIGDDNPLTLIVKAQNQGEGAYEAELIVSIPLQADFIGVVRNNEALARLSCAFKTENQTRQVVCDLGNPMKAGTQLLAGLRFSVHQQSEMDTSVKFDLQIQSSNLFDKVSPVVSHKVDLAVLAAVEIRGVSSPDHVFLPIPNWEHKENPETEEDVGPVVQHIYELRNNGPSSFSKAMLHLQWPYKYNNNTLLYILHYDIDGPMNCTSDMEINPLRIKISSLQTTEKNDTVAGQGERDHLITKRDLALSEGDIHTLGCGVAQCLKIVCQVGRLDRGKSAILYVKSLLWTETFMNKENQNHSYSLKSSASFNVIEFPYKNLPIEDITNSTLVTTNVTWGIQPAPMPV
Chain of recombinant human integrin αVβ6 (P18564 22-707): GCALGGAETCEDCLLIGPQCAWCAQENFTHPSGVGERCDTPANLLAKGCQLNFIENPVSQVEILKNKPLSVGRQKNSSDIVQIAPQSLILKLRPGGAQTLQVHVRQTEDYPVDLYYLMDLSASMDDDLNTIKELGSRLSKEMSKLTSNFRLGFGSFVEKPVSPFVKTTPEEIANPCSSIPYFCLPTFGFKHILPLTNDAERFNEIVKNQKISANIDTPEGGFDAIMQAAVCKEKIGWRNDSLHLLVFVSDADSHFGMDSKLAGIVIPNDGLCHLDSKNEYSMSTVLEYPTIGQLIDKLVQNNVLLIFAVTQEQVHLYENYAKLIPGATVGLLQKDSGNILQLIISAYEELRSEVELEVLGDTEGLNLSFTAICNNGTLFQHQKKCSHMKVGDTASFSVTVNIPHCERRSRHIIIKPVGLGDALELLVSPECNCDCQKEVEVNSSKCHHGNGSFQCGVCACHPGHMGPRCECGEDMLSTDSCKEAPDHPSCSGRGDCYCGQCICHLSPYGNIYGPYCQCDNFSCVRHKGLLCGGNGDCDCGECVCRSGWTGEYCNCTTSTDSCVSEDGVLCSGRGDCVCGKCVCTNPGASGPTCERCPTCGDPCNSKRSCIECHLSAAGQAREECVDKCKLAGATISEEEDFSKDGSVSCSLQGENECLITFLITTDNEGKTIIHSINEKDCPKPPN

IC50	SMILES
< 50 nM	CO[C@H](C)CN(CCCCc1ccc2c(n1)NCCC2)CC[C@H](Nc1cc(-n2cccn2)ncn1)C(=O)O [Compound 77, (S)-2-((6-(1H-pyrazol-1-yl)pyrimidin-4-yl)amino)-4-(((R)-2-methoxypropyl) (4-(5,6,7,8-tetrahydro-1,8-naphthyridin-2-yl)butyl)amino) butanoic Acid]
< 50 nM	CO[C@H](C)CN(CCCCc1ccc2c(n1)NCCC2)CC[C@H](Nc1ncc(F)cn1)C(=O)O [Compound 78, (S)-2-((5-fluoropyrimidin-2-yl)amino)-4-(((R)-2-methoxypropyl) (4-(5,6,7,8-tetrahydro-1,8-naphthyridin-2-yl)butyl)amino) butanoic Acid]
< 50 nM	CO[C@H](C)CN(CCCCc1ccc2c(n1)NCCC2)CC[C@H](Nc1ncnc2cn[nH]c12)C(=O)O [Compound 79, (S)-2-((1H-pyrazolo[4,3-d]pyrimidin-7-yl)amino)-4-(((R)-2-methoxypropyl) (4-(5,6,7,8-tetrahydro-1,8-naphthyridin-2-yl)butyl)amino) butanoic Acid]
< 50 nM	CO[C@H](C)CN(CCCCc1ccc2c(n1)NCCC2)CC[C@H](Nc1cc(-c2ccccc2)ncn1)C(=O)O [Compound 80, (S)-4-(((R)-2-methoxypropyl) (4-(5,6,7,8-tetrahydro-1,8-naphthyridin-2-yl)butyl)amino)-2-((6-phenylpyrimidin-4-yl)amino) butanoic Acid]
< 50 nM	Cn1ncc2c(N[C@@H](CCN(CCCCc3ccc4c(n3)NCCC4)CCOc3ccccc3)C(=O)O)ncnc21 [Compound 82, (S)-2-((1-methyl-1H-pyrazolo[3,4-d]pyrimidin-4-yl)amino)-4-((2-phenoxyethyl) (4-(5,6,7,8-tetrahydro-1,8-naphthyridin-2-yl)butyl)amino) butanoic Acid]
< 50 nM	O=C(O)[C@H](CCN(CCCCc1ccc2c(n1)NCCC2)CCOc1ccccc1)Nc1ncc(Br)cn1 [Compound 83, (S)-2-((5-bromopyrimidin-2-yl)amino)-4-((2-phenoxyethyl) (4-(5,6,7,8-tetrahydro-1,8-naphthyridin-2-yl)butyl)amino) butanoic Acid]
250 to 1000 nM	COC[C@@H](F)CN(CCCCc1ccc2c(n1)NCCC2)CC[C@H](Nc1ncc(C(F)(F)F)cn1)C(=O)O [Compound 85, (S)-4-(((S)-2-fluoro-3-methoxypropyl) (4-(5,6,7,8-tetrahydro-1,8-naphthyridin-2-yl)butyl)amino)-2-((5-(trifluoromethyl)pyrimidin-2-yl)amino) butanoic Acid]
50 to 250 nM	COC[C@@H](F)CN(CCCCc1ccc2c(n1)NCCC2)CC[C@H](Nc1ncc(Br)cn1)C(=O)O [Compound 86, (S)-2-((5-bromopyrimidin-2-yl)amino)-4-(((S)-2-fluoro-3-methoxypropyl) (4-(5,6,7,8-tetrahydro-1,8-naphthyridin-2-yl)butyl)amino) butanoic Acid]
250 to 1000 nM	COC[C@@H](F)CN(CCCCc1ccc2c(n1)NCCC2)CC[C@H](Nc1ccnc(C(F)(F)F)n1)C(=O)O [Compound 87, (S)-4-(((S)-2-fluoro-3-methoxypropyl) (4-(5,6,7,8-tetrahydro-1,8-naphthyridin-2-yl)butyl)amino)-2-((2-(trifluoromethyl)pyrimidin-4-yl)amino) butanoic Acid]
> 1000 nM	Cn1ncc2c(N[C@@H](CCN(CCCCc3ccc4c(n3)NCCC4)CC(F)F)C(=O)O)ncnc21 [Compound 88, (S)-4-((2,2-difluoroethyl) (4-(5,6,7,8-tetrahydro-1,8-naphthyridin-2-yl)butyl)amino)-2-((1-methyl-1H-pyrazolo[3,4-d]pyrimidin-4-yl)amino) butanoic Acid]
< 50 nM	O=C(O)[C@H](CCN(CCCCc1ccc2c(n1)NCCC2)CCOc1ccccc1)Nc1ncc(C(F)(F)F)cn1 [Compound 89, (S)-4-((2-phenoxyethyl) (4-(5,6,7,8-tetrahydro-1,8-naphthyridin-2-yl)butyl)amino)-2-((5-(trifluoromethyl)pyrimidin-2-yl)amino) butanoic Acid]
< 50 nM	O=C(O)[C@H](CCN(CCCCc1ccc2c(n1)NCCC2)CCOc1ccccc1)Nc1ncnc2[nH]ncc12 [Compound 90, (S)-2-((1H-pyrazolo[3,4-d]pyrimidin-4-yl)amino)-4-((2-phenoxyethyl) (4-(5,6,7,8-tetrahydro-1,8-naphthyridin-2-yl)butyl)amino) butanoic Acid]
< 50 nM	O=C(O)[C@H](CCN(CCCCc1ccc2c(n1)NCCC2)CCOc1ccccc1)Nc1cc(-n2cccn2)ncn1 [Compound 91, (S)-2-((6-(1H-pyrazol-1-yl)pyrimidin-4-yl)amino)-4-((2-phenoxyethyl) (4-(5,6,7,8-tetrahydro-1,8-naphthyridin-2-yl)butyl)amino) butanoic Acid]
< 50 nM	O=C(O)[C@H](CCN(CCCCc1ccc2c(n1)NCCC2)CCOc1ccccc1)Nc1ccnc(C(F)(F)F)n1 [Compound 92, (S)-4-((2-phenoxyethyl) (4-(5,6,7,8-tetrahydro-1,8-naphthyridin-2-yl)butyl)amino)-2-((2-(trifluoromethyl)pyrimidin-4-yl)amino) butanoic Acid]
< 50 nM	O=C(O)[C@H](CCN(CCCCc1ccc2c(n1)NCCC2)CCOc1ccccc1)Nc1cc(-c2ccccc2)ncn1 [Compound 93, (S)-4-((2-phenoxyethyl) (4-(5,6,7,8-tetrahydro-1,8-naphthyridin-2-yl)butyl)amino)-2-((6-phenylpyrimidin-4-yl)amino) butanoic Acid]
< 50 nM	O=C(O)[C@H](CCN(CCCCc1ccc2c(n1)NCCC2)CCOc1ccccc1)Nc1nc(-c2cccnc2)nc2ccccc12 [Compound 94, (S)-4-((2-phenoxyethyl) (4-(5,6,7,8-tetrahydro-1,8-naphthyridin-2-yl)butyl)amino)-2-((2-(pyridin-3-yl)quinazolin-4-yl)amino) butanoic Acid]
> 1000 nM	O=C(O)[C@H](CCN(CCCCc1ccc2c(n1)NCCC2)CC(F)F)Nc1ncc(C(F)(F)F)cn1 [Compound 95, (S)-4-((2,2-difluoroethyl) (4-(5,6,7,8-tetrahydro-1,8-naphthyridin-2-yl)butyl)amino)-2-((5-(trifluoromethyl)pyrimidin-2-yl)amino) butanoic Acid]
> 1000 nM	O=C(O)[C@H](CCN(CCCCc1ccc2c(n1)NCCC2)CC(F)F)Nc1ncc(Br)cn1 [Compound 96, (S)-2-((5-bromopyrimidin-2-yl)amino)-4-((2,2-difluoroethyl) (4-(5,6,7,8-tetrahydro-1,8-naphthyridin-2-yl)butyl)amino) butanoic Acid]
> 1000 nM	O=C(O)[C@H](CCN(CCCCc1ccc2c(n1)NCCC2)CC(F)F)Nc1ccnc(C(F)(F)F)n1 [Compound 97, (S)-4-((2,2-difluoroethyl) (4-(5,6,7,8-tetrahydro-1,8-naphthyridin-2-yl)butyl)amino)-2-((2-(trifluoromethyl)pyrimidin-4-yl)amino) butanoic Acid]
> 1000 nM	O=C(O)[C@H](CCN(CCCCc1ccc2c(n1)NCCC2)CC(F)F)Nc1cc(-n2cccn2)ncn1 [Compound 98, (S)-2-((6-(1H-pyrazol-1-yl)pyrimidin-4-yl)amino)-4-((2,2-difluoroethyl) (4-(5,6,7,8-tetrahydro-1,8-naphthyridin-2-yl)butyl)amino) butanoic Acid]
